For data set [1], the system named is male mice. The data set can be described thus: Pentobarbital-induced hypothermia (Experiment 1). The class given is in vivo. To be noted: i.v. 10 min after pentobarbital 55 mg/kg i.p.; rectal temperature 30 min after test compound; dose reducing hypothermia of control group by 1.5° C. The protocol:
Pentobarbital-induced hypothermia:
Nine male mice weighing 18 to 22 g were used for each dosage of the test compounds. Mice were given i.v. various doses of TRH or tested compounds 10 min. after pentobarbital (55 mg/kg i.p.). Rectal temperature was measured before pentobarbital dosing and immediately before and 30 min. after the test compounds. Effects of test compounds were evaluated as ED1.5° C., the dose required to reduce by 1.5° C. pentobarbital-hypothermia of control group of mice which received only pentobarbital and saline.

In data set [2] the test system is male mice. The data set can be described thus: Disturbance of consciousness induced by concussive head injury (Experiment 2). The class given is in vivo. To be noted: i.v. 10 min before concussive head injury, dose shortening spontaneous movement time of control group by 50%; for ED50: Mus musculus, iv, read-out: Onset time of spontaneous movement ED50%. The protocol:
Disturbance of consciousness induced by concussive head injury:
Nine male mice weighing 18 to 22 g were used for each dosage of the test compounds. An acrylate weight containing lead (20.5 g, 19 mm in both diameter and thickness) was dropped to the head of mice from a 18 cm height. Mice were induced loss of consciousness and they remained motionless for some period. The time from the shock up to the onset of spontaneous movement was recorded as the spontaneous movement time. Test compounds were administered intravenously 10 min. before adding concussive head injury and effects of test compounds were evaluated as ED50%, the dose required to shorten by 50% the spontaneous movement time of control group.

The test system of data set [3] is male mice. To be noted: mouse, in vivo, iv.
Data set [4] relates to male mice. The data set can be described thus: Acute toxicity (Experiment 3). To be noted: intravenous.

Read-outs that look alike come from different tables or passages of the source.

As usually defined, the ED50 is the dose at which the effect has come halfway, by size or by number of responders.

Regarding `NC(=O)[C@@H]1CCCN1C(=O)[C@H](Cc1c[nH]cn1)NC(=O)[C@@H]1CC(=O)N1` [Example 1, N^α -[(S)-2-azetidinone-4-carbonyl]-L-histidyl-L-prolinamide], the “Reversal effect against pentobarbital-hypothermia ED1.5° C.” value (shortened to “Reversal effect”) with male mice [1] is reported as 0.01 mg/kg. For the same molecule, the 50% effective dose (ED50) with male mice [2] was found to be 0.1 mg/kg. Moreover, the “LD50 (i.v.)” value in the data set on male mice [3] is reported as “higher than 1493 mg/kg”.

For `O=C1C[C@@H](C(=O)N[C@@H](Cc2c[nH]cn2)C(=O)N2CCC[C@H]2C(=O)NCCO)N1` [Example 4, N^α -[(S)-2-azetidinone-4-carbonyl]-L-histidyl-N-(2-hydroxyethyl)-L-prolinamide], the ED50 in the data set on male mice [2] turned out to be 0.35 mg/kg.

For `NC(=O)[C@@H]1CSCN1C(=O)[C@H](Cc1c[nH]cn1)NC(=O)[C@@H]1CC(=O)N1` [Example 6, 3-[N^α -[(S)-2-azetidinone-4-carbonyl]-L-histidyl]-L-thiazolidine-4-carboxamide], the “Reversal effect” value in the data set on male mice [1] is 0.05 mg/kg.

As for `Cn1cnc(CC(NC(=O)C2CC(=O)N2)C(=O)N2CCCC2C(N)=O)c1` [Example 19, N^α -[(s)-2-azetidinone-4-carbonyl]-N^.tau. -methyl-L-histidyl-L-prolinamide], the “Reversal effect” value in the data set with male mice [1] turned out to be 0.004 mg/kg.

Take `NC(=O)[C@@H]1CCCN1C(=O)[C@H](Cc1cnc[nH]1)NC(=O)[C@@H]1CCC(=O)N1` [TRH, L-pyroglutamyl-L-histidyl-L-prolinamide, reference compound]: the “Reversal effect” value with male mice [1] worked out at 0.1 mg/kg. Besides, the “Onset time of spontaneous movement ED50%” value in the data set with male mice [2] was 2.5 mg/kg. For the same molecule, the “LD50 (i.v.)” value in the data set on male mice [4] stood at 751 mg/kg.
